According to patent publication US20250018014A1, “METHOD FOR TREATING AND/OR PREVENTING REGNASE-1-RELATED DISEASE” (OSAKA UNIVERSITY, priority 2018, published 2025):
Residues, ends and D or L forms follow the SMILES beside them.

Columns and labels:
[1] = molecular target: T1, FL_Reg1 (full-length human Regnase-1) phosphorylation by TBK1 (Homo sapiens, UniProt Q5D1E8); assay: Regnase-1 phosphorylation inhibition by compounds (AlphaScreen), TBK1, full-length Regnase-1; format: biochemical; settings: Table 13; phosphorylation by TBK1; read-out: Phosphorylation inhibition FL_Reg1, 50% inhibition concentration (TBK1)
T1 construct: made in house; host or cells: Expi293 cells
T1 sequence (Q5D1E8 1-599): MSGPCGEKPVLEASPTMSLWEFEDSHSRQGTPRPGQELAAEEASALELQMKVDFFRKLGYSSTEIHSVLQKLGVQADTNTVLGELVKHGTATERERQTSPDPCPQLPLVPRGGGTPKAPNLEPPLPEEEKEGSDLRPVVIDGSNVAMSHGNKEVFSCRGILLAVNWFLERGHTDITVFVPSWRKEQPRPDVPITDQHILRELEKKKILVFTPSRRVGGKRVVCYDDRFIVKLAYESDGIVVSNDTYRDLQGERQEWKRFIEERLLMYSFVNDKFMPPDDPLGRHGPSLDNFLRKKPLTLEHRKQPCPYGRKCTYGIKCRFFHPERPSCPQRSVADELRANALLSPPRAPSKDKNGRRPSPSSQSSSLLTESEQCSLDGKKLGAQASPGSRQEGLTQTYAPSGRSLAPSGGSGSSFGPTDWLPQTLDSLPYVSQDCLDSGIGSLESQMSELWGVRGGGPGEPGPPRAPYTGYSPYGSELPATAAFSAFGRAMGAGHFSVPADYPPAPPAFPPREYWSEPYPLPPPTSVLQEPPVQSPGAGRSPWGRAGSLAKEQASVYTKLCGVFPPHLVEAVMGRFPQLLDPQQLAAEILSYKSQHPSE
From the text: (§1) The full-length sequence of human Regnase-1 (UniProt ID: Q5D1E8) was used to prepare a construct having a FLAG tag on the N-terminal side and a recognition sequence for biotin ligase BirA on the C-terminal side (FL_Reg1) as a target protein. The above-mentioned Regnase-1 was expressed in mammalian Expi293 cells, purified with FLAG M2 agarose, and isolated by gel filtration chromatography. When biotinylation was required, methods from nonpatent documents (BMC biotechnology, 2008,8,41; and Protein Science, 1999,8,921-929) were used. […]
(§2) Using Kinase assay buffer III (manufactured by SignalChem) supplemented with 2 mM DTT, 100 μM sodium vanadate, and 2 mM manganese chloride, kinase (IKKβ (manufactured by SignalChem) or TBK1 (manufactured by SignalChem)) and Regnase-1 were reacted in the presence of 10 μM ATP at room temperature for 2 hours to perform a phosphorylation reaction.
(§3) Phosphorylated Regnase-1 was detected by the AlphaScreen system. After each of the above-mentioned phosphorylated Regnase-1 antibodies was added and reacted at room temperature for one hour, anti-FLAG AlphaLISA Acceptor Beads (manufactured by PerkinElmer) and Protein A AlphaScreen Donor Beads (manufactured by PerkinElmer) were added, and EnVision (manufactured by PerkinElmer) was used to measure the excited luminescence. As a result, phosphorylated Regnase-1 produced by the phosphorylation reaction by kinase was specifically detected, and signals were confirmed to be enhanced in a manner dependent on Regnase-1 and kinase concentrations (FIG. 24).
(§4) After mixing 2 nM of the above-mentioned Regnase-1 and the compound, phosphorylated Regnase-1 produced by the phosphorylation reaction was detected by the AlphaScreen system. As the results, the inhibition rate was calculated from the signals obtained when adding the compound at each concentration, by defining the signal obtained with Regnase-1 alone to be 100% inhibition rate, and the signal obtained when the same amount of solvent (DMSO) is added in place of the compound as 0% inhibition rate. The 50% inhibition concentration (μM) was calculated from the obtained dose response curve (Table 11).

[2] = molecular target: T2, Reg1_301-599 (amino acids 301-599 of human Regnase-1) phosphorylation by TBK1 (Homo sapiens, UniProt Q5D1E8); assay: Regnase-1 phosphorylation inhibition by compounds (AlphaScreen), TBK1, C-terminal Regnase-1; format: biochemical; settings: Table 13, read-out: Phosphorylation inhibition Reg1_301-599, 50% inhibition concentration (TBK1)
T2 construct: made in house; host or cells: Expi293 cells
T2 sequence (Q5D1E8 301-599): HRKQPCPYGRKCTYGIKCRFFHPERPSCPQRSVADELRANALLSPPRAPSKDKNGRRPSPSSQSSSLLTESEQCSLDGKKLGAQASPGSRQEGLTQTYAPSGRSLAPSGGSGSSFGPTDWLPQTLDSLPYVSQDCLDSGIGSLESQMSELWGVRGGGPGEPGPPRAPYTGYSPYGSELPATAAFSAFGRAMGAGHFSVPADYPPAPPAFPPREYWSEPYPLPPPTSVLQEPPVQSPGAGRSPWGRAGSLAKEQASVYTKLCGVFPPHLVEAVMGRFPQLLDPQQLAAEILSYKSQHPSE
Protocol: (§5) Among the full-length human Regnase-1 sequence, the 1st to 546th amino acid sequence was prepared and made into a construct having a FLAG tag on the N-terminal side and a biotin ligase BirA recognition sequence on the C-terminal side (herein, a Regnase-1 lacking the C-terminal domain of Regnase-1 (amino acids 547 to 599 in the case of SEQ ID NO: 2) is referred to as “ΔCTD_Reg1”. “ΔCTD_Reg1” is different from “Regnase-1ΔCTD”, which is a C-terminal domain deletion variant resulting from a frameshift mutation caused by a 1 bp deletion at codon 517, as prepared in Example 13). In addition, the sequence from amino acids 301 to 599 of the full-length human Regnase-1 sequence was designated as C-terminal Regnase-1, and a construct having a FLAG tag on the N-terminal side and a recognition sequence for biotin ligase BirA on the C-terminal side was prepared (Reg1_301-599). The above-mentioned Regnase-1 was expressed in mammalian Expi293 cells, purified with FLAG M2 agarose, and isolated by gel filtration chromatography. When biotinylation was required, methods of nonpatent documents (BMC biotechnology, 2008,8,41; and Protein Science, 1999,8,921-929) were used.
as §2, §3, §4

[3] = molecular target: T3, FL_Reg1 (full-length human Regnase-1) phosphorylation by IKKβ (Homo sapiens, UniProt Q5D1E8); assay: Regnase-1 phosphorylation inhibition by compounds (AlphaScreen), IKKβ, full-length Regnase-1; format: biochemical; settings: Table 14; phosphorylation by IKKβ; read-out: Phosphorylation inhibition FL_Reg1, 50% inhibition concentration (IKKβ)
T3 construct: made in house; host or cells: Expi293 cells
T3 sequence (Q5D1E8 1-599): T1 sequence (Q5D1E8 1-599)
From the text: as §1, §2, §3, §4

[4] = molecular target: T4, binding between TBK1 and full-length Regnase-1 (FL_Reg1) (Homo sapiens, UniProt Q5D1E8); assay: Inhibition of kinase-Regnase-1 binding by the compounds (AlphaScreen), TBK1; settings: Table 13; binding between TBK1 and Regnase-1; read-out: Binding inhibition FL_Reg1, 50% inhibition concentration (TBK1)
T4 construct: made in house; host or cells: Expi293 cells
T4 sequence (Q5D1E8 1-599): T1 sequence (Q5D1E8 1-599)
Protocol: (§6) As a target protein, a construct having a FLAG tag on the N-terminal side and a recognition sequence for biotin ligase BirA on the C-terminal side of the full-length sequence of human Regnase-1 (UniProt ID: Q5D1E8) was prepared (FL_Reg1). The above-mentioned Regnase-1 was expressed in mammalian Expi293 cells, purified with FLAG M2 agarose, and isolated by gel filtration chromatography. When biotinylation was required, methods from nonpatent documents (BMC biotechnology, 2008,8,41; and Protein Science, 1999,8,921-929) were used.
(§7) After mixing 2.5 nM of the above-mentioned Regnase-1 and the compound, 2.5 nM of IKKβ or TBK1 was added and reacted at room temperature for two hours. Then, Anti FLAG AlphaLISA Acceptor Beads (manufactured by PerkinElmer) and Glutathione-coated AlphaScreen Donor Beads (manufactured by PerkinElmer) were added, and excited luminescence was measured using En Vision (manufactured by PerkinElmer). As the results, the inhibition rate from the signals obtained when adding the compound at each concentration were calculated, by defining the signal obtained with Regnase-1 alone to be 100% inhibition rate, and the signal obtained when the same amount of solvent (DMSO) is added in place of the compound as 0% inhibition rate. The 50% inhibition concentration (μM) was calculated from the obtained dose response curve (Table 12).

[5] = molecular target: T5, binding between IKKβ and full-length Regnase-1 (FL_Reg1) (Homo sapiens, UniProt Q5D1E8); assay: Inhibition of kinase-Regnase-1 binding by the compounds (AlphaScreen), IKKβ; settings: Table 14; binding between IKKβ and Regnase-1; read-out: Binding inhibition FL_Reg1, 50% inhibition concentration (IKKβ)
T5 construct: made in house; host or cells: Expi293 cells
T5 sequence (Q5D1E8 1-599): T1 sequence (Q5D1E8 1-599)
Protocol: as §6, §7

[6] = molecular target: T6, Reg1_301-599 (amino acids 301-599 of human Regnase-1) phosphorylation by IKKβ (Homo sapiens, UniProt Q5D1E8); assay: Regnase-1 phosphorylation inhibition by compounds (AlphaScreen), IKKβ, C-terminal Regnase-1; format: biochemical; settings: Table 14, read-out: Phosphorylation inhibition Reg1_301-599, 50% inhibition concentration (IKKβ)
T6 construct: made in house; host or cells: Expi293 cells
T6 sequence (Q5D1E8 301-599): T2 sequence (Q5D1E8 301-599)
From the text: The full-length sequence of human Regnase-1 (UniProt ID: Q5D1E8) was used to prepare a construct having a FLAG tag on the N-terminal side and a recognition sequence for biotin ligase BirA on the C-terminal side (FL_Reg1) as a target protein. The above-mentioned Regnase-1 was expressed in mammalian Expi293 cells, purified with FLAG M2 agarose, and isolated by gel filtration chromatography. When biotinylation was required, methods from nonpatent documents (BMC biotechnology, 2008,8,41; and Protein Science, 1999,8,921-929) were used.
as §5, §2, §3, §4

Row | IC50 [1] [µM] | IC50 [2] [µM] | IC50 [3] [µM] | IC50 [4] [µM] | IC50 [5] [µM] | IC50 [6] [µM] | Structure (SMILES)
1 | 2.2 | 4.6 | 0.8 | 17.9 | 15.1 |  | CC[C@H](C)[C@@H]1NC(=O)[C@H](C)NC(=O)[C@H](CCCNC(=N)N)NC(=O)[C@H](Cc2ccc(O)cc2)NC(=O)[C@H](Cc2ccc(O)cc2)NC(=O)[C@H](C)NC(=O)[C@H](CO)NC(=O)[C@H](CC(N)=O)NC(=O)[C@H](Cc2ccccc2)NC(=O)[C@H](CC(N)=O)NC(=O)[C@H](C)N(C)C(=O)C[C@@H](C(=O)N2CCCC2)NC(=O)[C@H](Cc2c[nH]c3ccccc23)NC1=O [PP7] (HELM PEPTIDE1{[meA].N.F.N.S.A.Y.Y.R.A.I.W.D.[C1CCN([*:1])C1]}$PEPTIDE1,PEPTIDE1,1:R1-13:R3$$$V2.0)
2 | 3.1 | 6.8 | 1.6 | 7.1 | 20.1 | 6.5 | CC[C@H](C)[C@@H]1NC(=O)[C@H](Cc2c[nH]c3ccccc23)NC(=O)[C@H](CO)NC(=O)[C@H](Cc2c[nH]c3ccccc23)NC(=O)[C@H](C(C)C)NC(=O)CNC(=O)[C@H](Cc2ccccc2)NC(=O)[C@H](CCCNC(=N)N)NC(=O)[C@H](C)N(C)C(=O)C[C@@H](C(=O)N2CCCC2)NC(=O)[C@@H]2CCCN2C(=O)[C@H](Cc2ccc(O)cc2)NC1=O [PP14] (HELM PEPTIDE1{[meA].R.F.G.V.W.S.W.I.Y.P.D.[C1CCN([*:1])C1]}$PEPTIDE1,PEPTIDE1,1:R1-12:R3$$$V2.0)
